Laboratory results reported in BindingDB's records for PubMed 33333396 (National University of Ireland Galway, 2021).

Experiments:
[1] = molecular target: T1, Bcl-2 homologous antagonist/killer (Homo sapiens, UniProt Q16611); assay: Binding affinity to Bak/Mcl-1 (unknown origin) protein protein interaction by fluorescence polarization assay
T1 sequence (Q16611 whole entry): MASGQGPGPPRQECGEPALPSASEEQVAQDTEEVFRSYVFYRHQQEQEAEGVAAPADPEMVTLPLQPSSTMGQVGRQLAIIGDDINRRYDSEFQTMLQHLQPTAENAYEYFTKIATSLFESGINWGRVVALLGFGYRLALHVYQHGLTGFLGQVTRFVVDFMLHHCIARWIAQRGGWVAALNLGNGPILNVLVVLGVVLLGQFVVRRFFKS

[2] = molecular target: T1, Bcl-2 homologous antagonist/killer; assay: Inhibition of Mcl-1/Bak (unknown origin)

Work on `CC(C)Oc1cc(C(=O)Nc2ccc(C(=O)Nc3ccc(C(=O)O)cc3OC(C)C)nc2OC(C)C)ccc1N` yielded a Ki [1] of 1.79 µM.
Work on `Cc1cc2c(C(=O)NC(C)c3ccc(Cl)cc3)c(O)c(O)cc2c(O)c1-c1c(C)cc2c(C(=O)NC(C)c3ccc(Cl)cc3)c(O)c(O)cc2c1O` (configuration not stated) [Apogossypol derivative, 8k] yielded an IC50 [2] of 0.23 µM.
